Laboratory results from patent publication US20140228248A1, “METHODS AND COMPOSITIONS FOR DETECTING INFECTIONS” (BIOMED VALLEY DISCOVERIES, INC., priority 2011, published 2014).

Assays:
[1] = tested on: DH5α E. coli; experiment: Live cell filter assay in culture media (Millipore NCM filter, scintillation counter); format: cell-based; conditions: for cell based signal over background signal: 10,000 cells incubated for 8 hours, Millipore NCM filter
Procedure: 10,000 cells were put into 2 ml of media (LB, SOB, SOC, DeTox™, or TB), and incubated for 8 hours at 37° C. and shaken at 250 rpm. The samples were then passed through the respective filters (Millipore and others) via a syringe, then the samples were washed with 40 ml of PBS via a syringe. The filter samples were counted using a scintillation counter.
Millipore NCM filters were also used in the live cell experiments. […] Moreover, LB and SOB media strongly potentiated the growth of the DH5α E. coli. The cell based signals are 42.78-fold and 82.63-fold, respectively, over background signal for these two media.
10,000, 50,000 or 100,000 DH5α cells were added into 1 ml SOB media, and 1 μl of 1.76 mM ^14C FIAU was added to the mixture to constitute a 1.76 μM solution. The mixture was incubated for 4 to 6 hours at 37° C. in an agitation incubator. After the incubation period, the mixture was passed through a 0.22 μm Millipore nitrocellulose filter. The filter was then washed with 40 ml of 1×PBS using a syringe. The CPM was determined using a scintillation counter.

[2] = tested on: DH5α (E. coli) cells; experiment: Detection of cells spiked into human urine / SOB mix (filter assay); format: cell-based; conditions: 10,000 DH5α cells, 50% urine and 50% SOB mix, 1.76 μM, 5 hours
Procedure: In another set of experiments, 10,000 DH5α cells were added into 1 ml human urine. 1 ml of SOB media and 2 μl of 1.76 mM ^14C FIAU was added to the mixture to constitute a 1.76 μM solution. The mixture was incubated for 5 hours at 37° C. in an agitation incubator. After the incubation period, the mixture was passed through a 0.22 μm Millipore nitrocellulose filter. The filter was then washed with 40 ml of 1×PBS using a syringe. The CPM was determined using a scintillation counter. Thus, 10,000 DH5α (E. coli) cells were detectable in a 50% urine and 50% SOB mix in 5 hours.

[3] = tested on: DH5α cells; experiment: Detection of cells spiked into rat CSF / SOB mix (filter assay); format: cell-based, E. coli; conditions: 10,000 cells, 50% CSF (rat) and 50% SOB, 1.76 μM, 5 hours or less
Procedure: An experiment was also performed to determine whether a shorter incubation period is possible. 10,000 DH5α cells were added into 1 ml rat CSF. 1 ml of SOB media and 2 μl of 1.76 mM ^14C FIAU was added to the mixture to constitute a 1.76 μM solution. The mixture was incubated for 5 hours at 37° C. in an agitation incubator. After the incubation period, the mixture was passed through a 0.22 μm Millipore nitrocellulose filter. The filter was then washed with 40 ml of 1×PBS using a syringe. The CPM was determined using a scintillation counter. Thus, 10,000 cells after 5 hours or less of incubation in a mixture containing 50% CSF and 50% SOB were detectable.

Compound	cell based signal over background signal ([1]; LB media)	cell based signal over background signal ([1]; SOB media)	signal versus background ([1]; 10,000 DH5α cells, 1 ml SOB, 1.76 μM (200 mCi/mmol), about 4 hours)	detectability of cells [2]	detectability of cells [3]
O=c1[nH]c(=O)n([C@@H]2O[C@H](CO)[C@@H](O)[C@@H]2F)cc1I [FIAU, 2′-fluoro-5-iodo-1-β-D-arabinofuranosyluracil]	42.78 fold	82.63 fold	–	–	–
O=c1[nH][14c](=O)n([C@@H]2O[C@H](CO)[C@@H](O)[C@@H]2F)cc1I [^14C-FIAU, ^14C-labeled 2′-fluoro-5-iodo-1-β-D-arabinofuranosyluracil]	–	–	signal above the background	detectable	detectable
